# Experiment: In vitro release of timolol from the drug reservoir of the flexible DDS
# Assay type: physicochemical
# Protocol: An electrochemical reaction of gold was examined in vitro in PBS (pH 7.4) and artificial tears having a constant voltage of 1.85 V. Timolol was released from the drug reservoir by applying a voltage of 1.85 V to an anode and a cathode of a DDS for 5 minutes. A concentration of the released timolol was quantified with a UV-vis spectrometer at an absorbance wavelength of 259 nm.
smiles,measurement,setting,value
CC(C)(C)NC[C@H](O)COc1nsnc1N1CCOCC1 [timolol],drug (timolol) released,absence of the PVA layer,less than 50%
same,timolol released without electrical triggering,"for 90 minutes, without electrical triggering",less than 5%
same,drug (timolol) dissolution,presence of PVA,completely dissolved
same,time until almost all of the timolol was completely released,presence of PVA,≤ 30 min
same,timolol released within 5 minutes,"presence of PVA, within 5 minutes",less than 85%
same,cumulative release of timolol at each activation,"three reservoirs activated at 10, 25 and 40 minutes",significantly enhanced
same,cumulative release of timolol before activation,"three reservoirs, until 10 minutes (before first activation)",no significant release

# From patent US20230371814A1, “WIRELESS THERANOSTIC SMART CONTACT LENS CAPABLE OF MEASURING AND ADJUSTING INTRAOCULAR PRESSURE IN GLAUCOMA PATIENTS” (POSTECH RESEARCH AND BUSINESS DEVELOPMENT FOUNDATION, priority 2022, published 2023)
